# Test results taken from US20120251495A1, “PTERIN BASED THERAPIES FOR INFLAMMATORY CONDITIONS” (priority 2008, published 2012).
# Columns and labels:
# [1] = tested on: MDA-MB-231 human breast tumor xenographs; assay: Antitumor efficacy in nude mice with MDA-MB-231 xenographs, 2nd experiment; assay type: in vivo, athymic nude mice
# Procedure: In the 2nd experiment, twenty-nine athymic nude, also purchased from Harlan Sprague Dawley, Inc. (Indianapolis, Ind.), were each injected subcutaneously with 10×10^6 MDA-MB-231 cancer cells into the right flank. When tumors reached 3-5 mm in size, the mice were divided into five treatment groups of five each and a control group of four mice. […] All the other mice in the 2nd experiment persisted ≧43 days without complications. Experimental groups were treated by oral gavage once daily with the indicated test suspensions or solutions.
# The control mice in the 1st experiment were treated with sterile water while the control mice in the 2nd experiment were untreated to evaluate the effect of mouse handling and gavaging upon tumor growth. Daily dosing was for 7 days per week. Animals were restrained but not anesthetized for oral dosing. Tumors were measured twice weekly with calipers and body weights taken twice weekly on the day of tumor measurements. Blood was collected from all animals via cardiac puncture at termination (after 70 to 98 days of treatment) and processed to EDTA plasma for analysis.
# The MDA-MB-231 human breast tumor cell lines were supplied by SRI International (Menlo Park, Calif.) and propagated using standard in vitro cell expansion methods. Briefly, cells were grown in L-15 media from Gibco (Cat. No. 11415-064) supplemented with 2 mM L-Glutamine and 10% Fetal Bovine Serum (FBS). The cells were cultured in an incubator with 5% CO2, 37.5° C., and 80% humidity. Cells were harvested with 0.25% (w/v) Trypsin-0.03% (w/v) EDTA solution. Cells were prepared for injection by standard methods to appropriate concentrations. Animals were temporarily restrained but not anesthetized for the inoculation of the tumor cells. Animals were subcutaneously injected with the tumor cells in a 100-200 μl volume.
# Each animal was individually tracked for tumor growth by external caliper measurements of protruding tumor. Primary tumor sizes were measured using calipers and an approximate tumor volume calculated using the formula 1/2 (a×b^2), where b was the smaller of two perpendicular diameters.
# For each group, the mean and standard error of the mean (SEM) of the ratio V/Vo, Relative Tumor Volume (RTV), were plotted as a function of treatment time after inoculation. V0 was the tumor volume at Day 0, when treatment began.
# plasma cytokines [2] = assay: Plasma cytokine levels (multiplex and single ELISA kits), 2nd experiment; assay type: in vivo, athymic nude mice; conditions: for IL-5: limit of detection 3.0; for IFN-γ / IL-4 / IL-12: limit of detection 3.2; for IL-6: limit of detection 3.9; for IL-1β: limit of detection 4.1
# Procedure: Cytokine levels in EDTA plasma from the mice in the 2nd experiment were measured at the UCSD Core Laboratory (San Diego, Calif.) using a multiplex assay kit for IL-1β, IL-2, IL-4, IL-5, IL-10, IL-12, IFN-γ, TNF-α and single ELISA kits for IL-6 and TGF-β1 by R&D Systems. […] For both the 1st and 2nd experiments, those measured cytokine values falling below the limits of detection were set to the higher assay limit for the purposes of the subsequent statistical analyses, and recorded as n.d. (not detectable) in Tables 1 through 3.
# HBe antigen = assay: Sera HBeAg ELISA in HBV transgenic mice; assay type: in vivo; conditions: males
# Procedure: (§1) Experimental design. DCP was administered per os, once daily for 14 days to randomly assigned HBV transgenic mice at 23, 7.3, and 2.3 mg/(kg d). ADV was used as a positive control at 10 mg/(kg d) using the same treatment schedule and vehicle (0.4% CMC). On day 14, mice were euthanized to collect serum and liver samples to perform liver HBV DNA, liver core and serum HBe assays, serum cytokine/chemokine profiles, and IDO metabolite assays.
# Sera HBeAg. Whole blood samples were obtained during necropsy by cardiac puncture, and processed for an HBeAg-specific ELISA (International Immuno Diagnostics, Foster City Calif.) (Money J D, Motter N E, Taro B, Lay M & Fairman J. Efficacy of cationic lipid-DNA complexes (CLDC) on hepatitis B virus in transgenic mice. Antiviral Res 2008; 79:71-79). Using the known PEI (Paul Ehrlich Institute) units for the calibrator, PEI units were formulated for the serial dilutions of the positive serum. A graph was generated, and extrapolation was used to assign a PEI unit value for each sample.
# IDO = assay: Serum tryptophan and kynurenine in HBV transgenic mice; assay type: in vivo
# Procedure: as §1
# Tryptophan and kynurenine measurements. Tryptophan (Trp) and kynurenine (Kyn) measurements were carried out as previously described (Widner B, Werner E R, Schennach H, Wachter H & Fuchs D. Simultaneous measurement of serum tryptophan and kynurenine by HPLC. Clin Chem 1997; 43:2424-2426). Kyn/Trp ratios were calculated for each mouse as an estimate of IDO activity.
# plasma cytokines [3] = assay: Plasma cytokine levels by ELISA (LINCOplex), 1st experiment; assay type: in vivo, athymic nude (nu/nu) mice; conditions: for IL-10: limit of detection 24.6
# Procedure: Cytokine levels in EDTA plasma from the mice in the 1st experiment were determined by ELISA assay at Alta Analytical Laboratories (San Diego, Calif.) using a LINCOplex Kit (Linco Research). Tryptophan (Trp) and kynurenine (Kyn) concentrations were measured from EDTA plasma samples by high pressure liquid chromatography (HPLC) using 3-nitro-L-tyrosine as the internal standard (Widner et al., 1997). To estimate IDO activity, the kynurenine to tryptophan ratio (Kyn/Trp) was calculated and expressed as μmol kynurenine/mmol tryptophan (Wirleitner, 2003). The values from five mice in the 1st experiment are not included in the summary statistics given in Table 1 for the following reasons. One mouse from each of the four treatment groups was used to test the effects of mega dosing, i.e., with (1:4 mol:mol) calcium pterin at 100 mg/kg/day after Day 60 of treatment, and are excluded. Also excluded was one mouse from the (1:4 mol:mol) calcium pterin (7 mg/kg/day) group which expired suddenly a few days before blood was collected. Cytokine measurements <3.2 pg/ml are reported as n.d. (not detectable) because the standard curves used in the ELISA assays were not calibrated below that level.
# Cytokine levels in EDTA plasma from the mice in the 1st experiment were determined by ELISA assay at Alta Analytical Laboratories (San Diego, Calif.) using a LINCOplex Kit (Linco Research).
# Cytokine levels in EDTA plasma from the mice in the 2nd experiment were measured at the UCSD Core Laboratory (San Diego, Calif.) using a multiplex assay kit for IL-1β, IL-2, IL-4, IL-5, IL-10, IL-12, IFN-γ, TNF-α and single ELISA kits for IL-6 and TGF-β1 by R&D Systems. EDTA plasma samples from two of the three ungavaged controls were lost due to handling error. For both the 1st and 2nd experiments, those measured cytokine values falling below the limits of detection were set to the higher assay limit for the purposes of the subsequent statistical analyses, and recorded as n.d. (not detectable) in Tables 1 through 3.
# [4] = tested on: MDA-MB-231 human breast xenographs; conditions: Moheno, 2004, cited from earlier work
# [5] = HBV mice generally, 2.3-23.0 mg/(kg day)
# [6] = Table 4, 7 mg/kg/d, limit of detection 3.2
# [7] = Table 4, 21 mg/kg/d, limit of detection 3.2
molecule,measurement,setting,value
"Nc1nc([O-])c2nccnc2n1.Nc1nc([O-])c2nccnc2n1.[Ca+2] [DCP, dipterinyl calcium pentahydrate]",MDA-MB-231 xenograph growth inhibition,"[1]; (1:2) 25, DCP 23 and 69, calcium chloride dihydrate 4.2 mg/kg/day",significantly inhibit
same,IL-5,"plasma cytokines [2]; 2nd experiment, 23 mg/kg/d",20.3 ± 10.2 pg/mL
same,IFN-γ,"plasma cytokines [2]; 2nd experiment, 23 mg/kg/d",15.2 ± 4.9 pg/mL
same,IL-4,"plasma cytokines [2]; 2nd experiment, 23 mg/kg/d",5.7 ± 1.7 pg/mL
same,IL-12,"plasma cytokines [2]; 2nd experiment, 23 mg/kg/d",1141.7 ± 327.1 pg/mL
same,IL-6,"plasma cytokines [2]; 2nd experiment, 23 mg/kg/d",49.6 ± 18.5 pg/mL
same,IL-1β,"plasma cytokines [2]; 2nd experiment, 23 mg/kg/d",6.2 ± .8 pg/mL
same,IL-2,"plasma cytokines [2]; 2nd experiment, 23 mg/kg/d, limit of detection 12.6",12.7 ± .11 pg/mL
same,IL-10,"plasma cytokines [2]; 2nd experiment, 23 mg/kg/d, limit of detection 24.6",37.0 ± 12.4 pg/mL
same,IL-5,"plasma cytokines [2]; 2nd experiment, 69 mg/kg/d",24.9 ± 17.0 pg/mL
same,IFN-γ,"plasma cytokines [2]; 2nd experiment, 69 mg/kg/d",29.9 ± 18.0 pg/mL
same,IL-4,"plasma cytokines [2]; 2nd experiment, 69 mg/kg/d",4.0 ± .6 pg/mL
same,IL-12,"plasma cytokines [2]; 2nd experiment, 69 mg/kg/d",1050.52 ± 238.7 pg/mL
same,IL-6,"plasma cytokines [2]; 2nd experiment, 69 mg/kg/d",37.0 ± 11.3 pg/mL
same,IL-1β,"plasma cytokines [2]; 2nd experiment, 69 mg/kg/d",5.3 ± .7 pg/mL
same,TGF-β1,"plasma cytokines [2]; 2nd experiment, 69 mg/kg/d, limit of detection 31.2",49.5 ± 18.3 pg/mL
same,HBe antigen (ELISA) versus controls,HBe antigen; 2.3 mg/(kg day),significant treatment increases
same,HBe antigen (ELISA) versus controls,HBe antigen; 7.3 mg/(kg day),significant treatment increases
same,serum Kyn,IDO; [5],did not affect
same,serum Kyn/Trp,IDO; [5],did not affect
same,serum tryptophan (Trp) versus controls,"IDO; male HBV mice, 23.0 mg/(kg day)",significantly increased
(1:4 mol:mol) calcium pterin [CaPterin],T/C,"[1]; 21 mg/kg/day, after 43 days",37%
same,IL10,"plasma cytokines [3]; Table 1, 7 mg/kg/day, plasma",41.9 ± 22.7 pg/mL
same,IL-6,"plasma cytokines [3]; Table 1, 7 mg/kg/day, plasma",114.7 ± 43.2 pg/mL
same,IL-12,"plasma cytokines [3]; Table 1, 7 mg/kg/day, plasma",7.7 ± 4.4 pg/mL
same,TNF-α,"plasma cytokines [3]; Table 1, 7 mg/kg/day, plasma",9.8 ± 1.5 pg/mL
same,IL-1b,"plasma cytokines [3]; Table 1, 7 mg/kg/day, plasma at sacrifice, n.d. = <3.2 pg/ml",5.2 ± 2.0 pg/mL
same,IFN-γ,"plasma cytokines [3]; Table 1, 7 mg/kg/day, plasma, n.d. = <3.2 pg/ml",4.7 ± 0.6 pg/mL
same,IL10,"plasma cytokines [3]; Table 1, 21 mg/kg/day, plasma",50.8 ± 32.3 pg/mL
same,IL-6,"plasma cytokines [3]; Table 1, 21 mg/kg/day, plasma",121.7 ± 78.1 pg/mL
same,IL-12,"plasma cytokines [3]; Table 1, 21 mg/kg/day, plasma",243.8 ± 237.8 pg/mL
same,TNF-α,"plasma cytokines [3]; Table 1, 21 mg/kg/day, plasma",8.5 ± 1.6 pg/mL
same,IL-1b,"plasma cytokines [3]; Table 1, 21 mg/kg/day, plasma at sacrifice, n.d. = <3.2 pg/ml",3.4 ± 0.2 pg/mL
same,IFN-γ,plasma cytokines [3]; [6],4.7 ± .8 pg/mL
same,IL-12,plasma cytokines [3]; [6],7.7 ± 4.4 pg/mL
same,TNF-α,plasma cytokines [3]; [6],9.8 ± 1.5 pg/mL
same,IL-1β,"plasma cytokines [3]; Table 4, 7 mg/kg/d, limit of detection 4.1",5.8 ± 1.7 pg/mL
same,IL-10,"plasma cytokines [3]; Table 4, 7 mg/kg/d",49.0 ± 17.0 pg/mL
same,IL-6,"plasma cytokines [3]; Table 4, 7 mg/kg/d, plasma at sacrifice, limit of detection 3.9",114.7 ± 43.2 pg/mL
same,IL-12,plasma cytokines [3]; [7],243.8 ± 237.8 pg/mL
same,TNF-α,plasma cytokines [3]; [7],8.5 ± 1.6 pg/mL
same,IL-10,"plasma cytokines [3]; Table 4, 21 mg/kg/d",61.5 ± 27.3 pg/mL
same,IL-6,"plasma cytokines [3]; Table 4, 21 mg/kg/d, plasma at sacrifice, limit of detection 3.9",121.7 ± 78.1 pg/mL
same,plasma IFN-γ response to dosage (ACIP model),plasma cytokines [3]; stepwise regression,decrease
same,plasma IL-6 response to dosage (ACIP model),plasma cytokines [3]; stepwise regression,decrease
same,plasma IL-10 response to dosage (ACIP model),plasma cytokines [3]; stepwise regression,increase
same,IL-5,"plasma cytokines [2]; 2nd experiment, 21 mg/kg/d",8.2 ± 1.4 pg/mL
same,IFN-γ,"plasma cytokines [2]; 2nd experiment, 21 mg/kg/d",6.2 ± 2.4 pg/mL
same,IL-12,"plasma cytokines [2]; 2nd experiment, 21 mg/kg/d",721.6 ± 19.1 pg/mL
same,IL-1β,"plasma cytokines [2]; 2nd experiment, 21 mg/kg/d",5.0 ± .7 pg/mL
same,IL-6,"plasma cytokines [2]; 2nd experiment, 21 mg/kg/d, plasma at sacrifice",30.3 ± 10.2 pg/mL
same,increases in plasma IL-12 (FIG. 10),plasma cytokines [2]; at the dosages tested,"lower, non-significant increases"
same,T/C ratio,[4]; 7 mg/kg/day,41%
same,antitumor efficacy against MDA-MB-231 human breast xenographs,[4]; nude mice,significant antitumor efficacy
